Experimental data from paper PMC546329, “SIRT1 Regulates HIV Transcription via Tat Deacetylation” (PLoS Biology, 2005).

Target: T1, SIRT1 (Homo sapiens, UniProt Q96EB6)
T1 construct: FLAG-tagged SIRT1 immunoprecipitated from HEK 293 cells
T1 sequence (Q96EB6 2-747): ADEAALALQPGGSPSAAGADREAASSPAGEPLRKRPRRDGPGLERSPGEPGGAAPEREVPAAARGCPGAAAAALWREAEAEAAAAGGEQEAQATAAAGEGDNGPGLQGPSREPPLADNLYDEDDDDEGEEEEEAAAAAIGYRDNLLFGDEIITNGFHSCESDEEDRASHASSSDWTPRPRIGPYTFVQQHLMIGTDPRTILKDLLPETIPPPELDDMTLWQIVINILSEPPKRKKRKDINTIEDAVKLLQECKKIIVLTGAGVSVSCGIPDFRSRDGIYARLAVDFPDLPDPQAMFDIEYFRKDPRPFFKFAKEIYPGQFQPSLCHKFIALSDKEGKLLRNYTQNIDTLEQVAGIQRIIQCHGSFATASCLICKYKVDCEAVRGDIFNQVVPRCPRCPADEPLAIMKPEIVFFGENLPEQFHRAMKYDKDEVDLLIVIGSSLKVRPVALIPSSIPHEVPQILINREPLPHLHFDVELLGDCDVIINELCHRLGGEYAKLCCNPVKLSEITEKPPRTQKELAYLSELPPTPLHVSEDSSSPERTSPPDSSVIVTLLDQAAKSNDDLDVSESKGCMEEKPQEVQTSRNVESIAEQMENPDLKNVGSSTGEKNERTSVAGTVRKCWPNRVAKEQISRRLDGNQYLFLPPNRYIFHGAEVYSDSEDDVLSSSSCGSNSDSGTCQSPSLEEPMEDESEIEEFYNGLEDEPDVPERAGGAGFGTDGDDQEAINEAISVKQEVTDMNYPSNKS
Assay: deacetylation of synthetic acetylated Tat by immunoprecipitated SIRT1 with or without […] NAD+, Western blot
Format: biochemical

## NC(=O)c1ccc[n+]([C@@H]2O[C@H](COP(=O)([O-])OP(=O)(O)OC[C@H]3O[C@@H](n4cnc5c(N)ncnc54)[C@H](O)[C@@H]3O)[C@@H](O)[C@H]2O)c1 [NAD^+]
  deacetylation of synthetic acetylated Tat by immunoprecipitated SIRT1 with or wi: The SIRT1-mediated deacetylation of Tat was dependent on NAD^+
